The source of these data is patent US20250302832A1, “PYRAZINE DERIVATIVES AND USES THEREOF” (FOGHORN THERAPEUTICS INC., priority 2022, published 2025).

One test concerns the target T1, HiBit-BRM fusion protein (Homo sapiens, UniProt P51531).
T1 construct: expressed in transfected cells
The test is described as follows: HiBiT-BRM cell-based degradation assay (Nano-Glo HiBiT lytic detection, 24 h). The note with it: HeLa cell line expressing HiBiT-BRM; for DC50: read-out: BRM HiBit Degradation IC50. As for the experimental part: (§1) Procedure: A stable HeLa cell line expressing HiBiT-BRM was generated. On day 0, 5000 cells were seeded in 40 μL of media into each well of 384-well cell culture plates. On day 1, cells were treated with 120 nL DMSO or 120 nL of 3-fold serially DMSO-diluted compounds (10 points in duplicate with 30 μM as final top dose). Subsequently plates were incubated for 24 h in a standard tissue culture incubator and equilibrated at room temperature for 15 minutes. Nano-GB HiBiT Lytic Detection System (Promega N3050) reagent was freshly prepared and 20 ul was added to each well. Upon addition of this LgBit-containing reagent, the HiBiT and LgBiT proteins associate to form the luminescent NanoBiT luciferase. The plates were shaken for 10 minutes at room temperature and the bioluminescence read using an EnVision plate reader (PerkinElmer).
(§2) The degradation % was calculated using the following formula: % degradation=100%−100%×(Lumsample−LuMLC)/(LuMHC−LuMLC). DMSO treated cells are employed as High Control (HC) and 2 μM of a known BRM/BRG1 degrader standard treated cells are employed as Low Control (LC).
Background: The HiBiT peptide binds its large partner to form an active luciferase.

For test [1], the target named is T2, HiBit-BRG1 fusion protein (Homo sapiens, UniProt P51532).
T2 construct: expressed in transfected cells
T2 sequence (P51532 whole entry, the tested form may be a part): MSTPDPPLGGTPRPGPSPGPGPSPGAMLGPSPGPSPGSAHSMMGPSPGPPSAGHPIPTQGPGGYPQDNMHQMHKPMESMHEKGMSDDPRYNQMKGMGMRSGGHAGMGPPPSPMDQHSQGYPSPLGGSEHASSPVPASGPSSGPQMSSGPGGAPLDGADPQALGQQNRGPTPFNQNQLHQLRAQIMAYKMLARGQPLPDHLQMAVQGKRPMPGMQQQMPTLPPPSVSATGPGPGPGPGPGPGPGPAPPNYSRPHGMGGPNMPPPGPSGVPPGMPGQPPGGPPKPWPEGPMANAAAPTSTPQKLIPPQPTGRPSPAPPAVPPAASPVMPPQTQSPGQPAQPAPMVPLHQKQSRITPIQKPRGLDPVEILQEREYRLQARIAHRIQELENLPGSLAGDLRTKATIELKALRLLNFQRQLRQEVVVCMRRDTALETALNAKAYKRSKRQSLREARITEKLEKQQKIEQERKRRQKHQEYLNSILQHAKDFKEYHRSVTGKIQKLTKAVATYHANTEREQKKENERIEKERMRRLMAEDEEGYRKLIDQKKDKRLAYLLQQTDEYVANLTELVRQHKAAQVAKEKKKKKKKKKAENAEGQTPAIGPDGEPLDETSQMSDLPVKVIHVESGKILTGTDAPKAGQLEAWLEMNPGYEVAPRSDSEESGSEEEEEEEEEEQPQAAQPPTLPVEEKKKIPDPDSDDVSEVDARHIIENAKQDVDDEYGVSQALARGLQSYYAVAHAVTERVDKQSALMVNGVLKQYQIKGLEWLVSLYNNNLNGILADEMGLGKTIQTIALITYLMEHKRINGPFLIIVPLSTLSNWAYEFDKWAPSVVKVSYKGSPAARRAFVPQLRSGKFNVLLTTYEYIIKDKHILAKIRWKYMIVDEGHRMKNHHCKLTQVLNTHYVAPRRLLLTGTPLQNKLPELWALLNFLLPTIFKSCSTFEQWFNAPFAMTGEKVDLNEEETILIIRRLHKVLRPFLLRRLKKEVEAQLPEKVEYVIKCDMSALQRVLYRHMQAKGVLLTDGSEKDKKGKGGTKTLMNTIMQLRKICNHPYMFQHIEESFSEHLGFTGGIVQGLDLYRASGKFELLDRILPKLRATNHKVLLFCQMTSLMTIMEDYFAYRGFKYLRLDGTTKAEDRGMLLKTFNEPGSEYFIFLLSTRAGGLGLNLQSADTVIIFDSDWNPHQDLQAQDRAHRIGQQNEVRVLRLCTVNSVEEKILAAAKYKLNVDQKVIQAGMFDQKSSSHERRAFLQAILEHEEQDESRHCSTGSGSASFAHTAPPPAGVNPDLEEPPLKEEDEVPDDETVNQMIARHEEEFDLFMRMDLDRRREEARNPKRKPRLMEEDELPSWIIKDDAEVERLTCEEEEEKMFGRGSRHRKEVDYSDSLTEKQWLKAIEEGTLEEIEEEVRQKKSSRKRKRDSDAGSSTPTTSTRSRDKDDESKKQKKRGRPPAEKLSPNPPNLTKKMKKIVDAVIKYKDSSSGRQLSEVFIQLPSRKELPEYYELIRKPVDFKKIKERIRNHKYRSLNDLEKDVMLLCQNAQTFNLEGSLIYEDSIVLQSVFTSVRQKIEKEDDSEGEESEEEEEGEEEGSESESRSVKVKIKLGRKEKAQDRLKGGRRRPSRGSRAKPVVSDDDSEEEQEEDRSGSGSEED
The test can be described thus: HiBiT-BRG1 cell-based degradation assay (Nano-Glo HiBiT lytic detection, 24 h). The note with it: HeLa cell line expressing HiBit-BRG1 and LgBit; for Dmax: read-out: BRG1 HiBit Degradation Maximum (%); for DC50: read-out: BRMG1 HiBit Degradation IC50. On the procedure:
as §1, with “On day 1, cells were treated with 120 nL DMSO or 120 nL of 3-fold serially DMSO-diluted compounds (10 points in duplicate with 30 μM as final top dose).” left out
For measurement of BRG1 degradation, a stable HeLa cell line expressing HiBit-BRG1 and LgBit was generated. The same protocol as above was then followed.
as §2

T1 sequence (P51531 whole entry, the tested form may be a part): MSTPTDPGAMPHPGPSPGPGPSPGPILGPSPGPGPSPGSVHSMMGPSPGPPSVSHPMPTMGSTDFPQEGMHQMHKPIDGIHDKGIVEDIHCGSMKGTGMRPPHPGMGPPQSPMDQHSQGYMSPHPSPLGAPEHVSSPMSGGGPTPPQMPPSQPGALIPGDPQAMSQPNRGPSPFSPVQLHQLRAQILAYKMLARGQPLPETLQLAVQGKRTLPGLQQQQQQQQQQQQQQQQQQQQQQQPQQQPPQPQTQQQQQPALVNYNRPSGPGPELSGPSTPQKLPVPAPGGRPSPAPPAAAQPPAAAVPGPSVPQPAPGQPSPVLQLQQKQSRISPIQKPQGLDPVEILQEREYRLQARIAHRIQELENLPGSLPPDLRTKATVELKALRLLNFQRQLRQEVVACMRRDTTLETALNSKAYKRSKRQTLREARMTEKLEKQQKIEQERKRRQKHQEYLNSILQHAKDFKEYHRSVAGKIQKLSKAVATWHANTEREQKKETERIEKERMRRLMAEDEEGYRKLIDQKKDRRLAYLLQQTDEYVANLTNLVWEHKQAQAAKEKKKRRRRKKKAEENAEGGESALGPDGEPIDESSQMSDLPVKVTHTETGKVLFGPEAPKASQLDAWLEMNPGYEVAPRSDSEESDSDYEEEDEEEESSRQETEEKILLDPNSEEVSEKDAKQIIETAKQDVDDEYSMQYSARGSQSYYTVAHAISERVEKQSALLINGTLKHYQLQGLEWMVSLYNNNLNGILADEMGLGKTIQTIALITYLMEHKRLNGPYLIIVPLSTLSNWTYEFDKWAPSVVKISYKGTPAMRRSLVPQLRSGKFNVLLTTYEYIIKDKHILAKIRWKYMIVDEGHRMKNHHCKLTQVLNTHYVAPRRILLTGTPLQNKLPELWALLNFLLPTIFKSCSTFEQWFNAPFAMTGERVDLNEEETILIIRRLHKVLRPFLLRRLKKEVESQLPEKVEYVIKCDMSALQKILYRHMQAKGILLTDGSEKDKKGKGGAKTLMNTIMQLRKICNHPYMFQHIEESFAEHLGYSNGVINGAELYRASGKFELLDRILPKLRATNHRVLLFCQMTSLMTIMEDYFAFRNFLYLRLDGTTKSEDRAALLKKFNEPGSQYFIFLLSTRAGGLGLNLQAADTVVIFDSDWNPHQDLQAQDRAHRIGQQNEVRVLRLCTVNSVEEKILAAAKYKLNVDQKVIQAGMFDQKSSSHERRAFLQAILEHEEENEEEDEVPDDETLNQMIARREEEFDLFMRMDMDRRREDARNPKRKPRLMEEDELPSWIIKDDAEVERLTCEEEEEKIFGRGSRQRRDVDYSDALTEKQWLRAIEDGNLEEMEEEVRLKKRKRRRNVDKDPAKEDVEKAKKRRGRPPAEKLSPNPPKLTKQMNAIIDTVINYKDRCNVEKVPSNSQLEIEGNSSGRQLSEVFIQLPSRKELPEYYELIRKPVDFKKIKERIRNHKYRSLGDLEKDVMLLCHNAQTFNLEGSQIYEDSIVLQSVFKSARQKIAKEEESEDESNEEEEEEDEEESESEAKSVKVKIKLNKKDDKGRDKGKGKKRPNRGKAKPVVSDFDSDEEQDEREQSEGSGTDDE

For the compound `Cc1ncsc1-c1ccc([C@H](C)NC(=O)[C@@H]2C[C@@H](O)CN2C(=O)[C@@H](c2cc(N(C)CCN3CC(c4cc5nnc(-c6ccccc6O)cc5n4C)C3)no2)C(C)C)cc1` [Compound 10, (2S,4R)-4-hydroxy-1-((R)-2-(3-((2-(3-(3-(2-hydroxyphenyl)-5-methyl-5H-pyrrolo[3,2-c]pyridazin-6-yl)azetidin-1-yl)ethyl)(methyl)amino)isoxazol-5-yl)-3-methylbutanoyl)-N-((S)-1-(4-(4-methylthiazol-5-yl)phenyl)ethyl)pyrrolidine-2-carboxamide], on HiBit-BRM fusion protein, the “BRM HiBit Degradation Maximum (%)” value is “A (“A” indicates maximum degradation ≥75%)” and the DC50 is greater than 10 nM. Moreover, in test [1], the Dmax is greater than 50% and the DC50 is greater than 1000 nM.

As to `Cc1ncsc1-c1ccc([C@H](C)NC(=O)[C@@H]2C[C@@H](O)CN2C(=O)[C@@H](c2cc(OCCN3CC(c4cc5nnc(-c6ccccc6O)cc5n4C(F)F)C3)no2)C(C)C)cc1` [Compound 14, (2S,4R)-1-((R)-2-(3-(2-(3-(5-(difluoromethyl)-3-(2-hydroxyphenyl)-5H-pyrrolo[3,2-c]pyridazin-6-yl)azetidin-1-yl)ethoxy)isoxazol-5-yl)-3-methylbutanoyl)-4-hydroxy-N—((S)-1-(4-(4-methylthiazol-5-yl)phenyl)ethyl)pyrrolidine-2-carboxamide], on HiBit-BRM fusion protein, the “BRM HiBit Degradation Maximum (%)” value is recorded as “A (“A” indicates maximum degradation ≥75%)” and the DC50 is greater than 10 nM. Further, in test [1], the Dmax was greater than 50% and the DC50 was greater than 10 nM.

With `Cc1ncsc1-c1ccc([C@H](C)NC(=O)[C@@H]2C[C@@H](O)CN2C(=O)[C@@H](c2cc(-c3cnc(N4CCC(c5cc6nnc(-c7ccccc7O)cc6n5C)CC4)nc3)no2)C(C)C)cc1` [Compound 21, (2S,4R)-4-hydroxy-1-((R)-2-(3-(2-(4-(3-(2-hydroxyphenyl)-5-methyl-5H-pyrrolo[3,2-c]pyridazin-6-yl)piperidin-1-yl)pyrimidin-5-yl)isoxazol-5-yl)-3-methylbutanoyl)-N—((S)-1-(4-(4-methylthiazol-5-yl)phenyl)ethyl) pyrrolidine-2-carboxamide], on HiBit-BRM fusion protein, the “BRM HiBit Degradation Maximum (%)” value is on record as “A (“A” indicates maximum degradation ≥75%)” and the DC50 was less than 10 nM. In addition, in test [1], the Dmax was greater than 50% and the DC50 was less than 10 nM.

Take `Cc1ncsc1-c1ccc([C@H](C)NC(=O)[C@@H]2C[C@@H](O)CN2C(=O)[C@H](c2cc(-c3cnc(N4CCC(c5cc6nnc(-c7ccccc7O)cc6n5C5(C)CC5)CC4)nc3)no2)C(C)C)cc1` [Compound 42]: on HiBit-BRM fusion protein, the “BRM HiBit Degradation Maximum (%)” value is given as “B (“B” indicates maximum degradation ≥50%)” and the DC50 was greater than 10 nM. The Dmax in test [1] is less than 50%.

For `Cc1ncsc1-c1ccc([C@H](C)NC(=O)[C@@H]2C[C@@H](O)CN2C(=O)[C@@H](c2cc(-c3cnc(N4CC[C@H](c5cc6nnc(-c7ccccc7O)cc6n5C5CCC5)C4)nc3)no2)C(C)C)cc1` [Compound 112, (2S,4R)-1-((R)-2-(3-(2-((S)-3-(5-cyclobutyl-3-(2-hydroxyphenyl)-5H-pyrrolo[3,2-c]pyridazin-6-yl)pyrrolidin-1-yl)pyrimidin-5-yl)isoxazol-5-yl)-3-methylbutanoyl)-4-hydroxy-N-((S)-1-(4-(4-methylthiazol-5-yl)phenyl)ethyl)pyrrolidine-2-carboxamide], on HiBit-BRM fusion protein, the “BRM HiBit Degradation Maximum (%)” value is listed as “A (“A” indicates maximum degradation ≥75%)” and the DC50 is greater than 10 nM. For the same compound, in test [1], the Dmax is greater than 50% and the DC50 is greater than 10 nM.

As for `Cc1ncsc1-c1ccc([C@H](C)NC(=O)[C@@H]2C[C@@H](O)CN2C(=O)[C@@H](c2cc(-c3cnc(N4CC[C@H](c5cc6nnc(-c7cc(F)cc(F)c7O)cc6n5C5CC5)C4)nc3)no2)C(C)C)cc1` [Compound 108, (2S,4R)-1-((R)-2-(3-(2-((S)-3-(5-cyclopropyl-3-(3,5-difluoro-2-hydroxyphenyl)-5H-pyrrolo[3,2-c]pyridazin-6-yl)pyrrolidin-1-yl)pyrimidin-5-yl)isoxazol-5-yl)-3-methylbutanoyl)-4-hydroxy-N-((S)-1-(4-(4-methylthiazol-5-yl)phenyl)ethyl)pyrrolidine-2-carboxamide], on HiBit-BRM fusion protein, the “BRM HiBit Degradation Maximum (%)” value is reported as “B (“B” indicates maximum degradation ≥50%)” and the DC50 was greater than 10 nM. Also, in test [1], the Dmax was less than 50%.

In the case of `CC(C)C(C(=O)N1C[C@H](O)C[C@H]1C(=O)NC1CCCC1)c1cc(N2CC3(CC(c4cc5nnc(-c6ccccc6O)cc5n4C4CCC4)C3)C2)no1` (stereo partly drawn) [Compound 119, (2S,4R)-1-(2-(3-(6-(5-cyclobutyl-3-(2-hydroxyphenyl)-5H-pyrrolo[3,2-c]pyridazin-6-yl)-2-azaspiro[3.3]heptan-2-yl)isoxazol-5-yl)-3-methylbutanoyl)-N-cyclopentyl-4-hydroxypyrrolidine-2-carboxamide], on HiBit-BRM fusion protein, the “BRM HiBit Degradation Maximum (%)” value is recorded as “A (“A” indicates maximum degradation ≥75%)” and the DC50 was greater than 10 nM. Moreover, the Dmax in test [1] is less than 50%.

Regarding `Cc1ncsc1-c1ccc([C@H](C)NC(=O)[C@@H]2C[C@@H](O)CN2C(=O)[C@@H](c2cc(N3CCC4(CC3)CC(c3cc5nnc(-c6ccccc6O)cc5n3C)C4)no2)C(C)C)cc1` [Compound 113, (2S,4R)-4-hydroxy-1-((R)-2-(3-(2-(3-(2-hydroxyphenyl)-5-methyl-5H-pyrrolo[3,2-c]pyridazin-6-yl)-7-azaspiro[3.5]nonan-7-yl)isoxazol-5-yl)-3-methylbutanoyl)-N-((S)-1-(4-(4-methylthiazol-5-yl)phenyl)ethyl)pyrrolidine-2-carboxamide], on HiBit-BRM fusion protein, the “BRM HiBit Degradation Maximum (%)” value is listed as “A (“A” indicates maximum degradation ≥75%)” and the DC50 was less than 10 nM. In addition, in test [1], the Dmax is greater than 50% and the DC50 is greater than 10 nM.

With `Cc1ncsc1-c1ccc([C@H](C)NC(=O)[C@@H]2C[C@@H](O)CN2C(=O)[C@@H](c2cc(-c3cnc(N4CC[C@H](c5cc6nnc(-c7cc(F)cc(Cl)c7O)cc6n5C5CC5)C4)nc3)no2)C(C)C)cc1` [Compound 73, (2S,4R)-1-((R)-2-(3-(2-((S)-3-(3-(3-chloro-5-fluoro-2-hydroxyphenyl)-5-cyclopropyl-5H-pyrrolo[3,2-c]pyridazin-6-yl)pyrrolidin-1-yl)pyrimidin-5-yl)isoxazol-5-yl)-3-methylbutanoyl)-4-hydroxy-N-((S)-1-(4-(4-methylthiazol-5-yl)phenyl)ethyl)pyrrolidine-2-carboxamide], at HiBit-BRM fusion protein, the “BRM HiBit Degradation Maximum (%)” value is given as “B (“B” indicates maximum degradation ≥50%)” and the DC50 was greater than 10 nM. In addition, in test [1], the Dmax is greater than 50% and the DC50 was greater than 10 nM.

As to `C#Cc1ccc(CNC(=O)[C@@H]2C[C@@H](O)CN2C(=O)C(c2cc(N3CC4(CC(c5cc6nnc(-c7ccccc7O)cc6n5C5CCC5)C4)C3)no2)C(C)C)c(OC)c1` (stereo partly drawn) [Compound 58, (2S,4R)-1-(2-(3-(6-(5-cyclobutyl-3-(2-hydroxyphenyl)-5H-pyrrolo[3,2-c]pyridazin-6-yl)-2-azaspiro[3.3]heptan-2-yl)isoxazol-5-yl)-3-methylbutanoyl)-N-(4-ethynyl-2-methoxybenzyl)-4-hydroxypyrrolidine-2-carboxamide], at HiBit-BRM fusion protein, the “BRM HiBit Degradation Maximum (%)” value is “A (“A” indicates maximum degradation ≥75%)” and the DC50 was less than 10 nM. The Dmax in test [1] is less than 50%.

As to `CC(C)C(C(=O)N1C[C@H](O)C[C@H]1C(=O)NC1CCC1)c1cc(N2CC3(CC(c4cc5nnc(-c6ccccc6O)cc5n4C4CCC4)C3)C2)no1` (stereo partly drawn) [Compound 118, (2S,4R)-N-cyclobutyl-1-(2-(3-(6-(5-cyclobutyl-3-(2-hydroxyphenyl)-5H-pyrrolo[3,2-c]pyridazin-6-yl)-2-azaspiro[3.3]heptan-2-yl)isoxazol-5-yl)-3-methylbutanoyl)-4-hydroxypyrrolidine-2-carboxamide], on HiBit-BRM fusion protein, the “BRM HiBit Degradation Maximum (%)” value is “A (“A” indicates maximum degradation ≥75%)” and the DC50 was greater than 10 nM. For the same compound, in test [1], the Dmax is less than 50%.

In the case of `Cc1ncsc1-c1ccc([C@H](C)NC(=O)[C@@H]2C[C@@H](O)CN2C(=O)[C@@H](c2cc(OCCCN3CC(c4cc5nnc(-c6ccccc6O)cc5[nH]4)C3)no2)C(C)C)cc1` [Compound 3, (2S,4R)-4-hydroxy-1-((R)-2-(3-(3-(3-(3-(2-hydroxyphenyl)-5H-pyrrolo[3,2-c]pyridazin-6-yl)azetidin-1-yl)propoxy)isoxazol-5-yl)-3-methylbutanoyl)-N-((S)-1-(4-(4-methylthiazol-5-yl)phenyl)ethyl)pyrrolidine-2-carboxamide, formic acid], at HiBit-BRM fusion protein, the “BRM HiBit Degradation Maximum (%)” value is “B (“B” indicates maximum degradation ≥50%)” and the DC50 is greater than 1000 nM.
